Assay results from ChEMBL document CHEMBL5137081, “N-Heterocyclic 3-Pyridyl Carboxamide Inhibitors of DHODH for the Treatment of Acute Myelogenous Leukemia” (J Med Chem, 2022).
Converted amounts (≈) assume the structure as drawn.

How the values were obtained:
[1] = biological target: Dihydroorotate dehydrogenase (quinone), mitochondrial (Homo sapiens, UniProt Q02127); assay: Inhibition of His fused human DHODH expressed in Escherichia coli using DHO as substrate by DCIP absorbance based colorimetry assay
Dihydroorotate dehydrogenase (quinone), mitochondrial, sequence (Q02127 whole entry, the tested form may be a part): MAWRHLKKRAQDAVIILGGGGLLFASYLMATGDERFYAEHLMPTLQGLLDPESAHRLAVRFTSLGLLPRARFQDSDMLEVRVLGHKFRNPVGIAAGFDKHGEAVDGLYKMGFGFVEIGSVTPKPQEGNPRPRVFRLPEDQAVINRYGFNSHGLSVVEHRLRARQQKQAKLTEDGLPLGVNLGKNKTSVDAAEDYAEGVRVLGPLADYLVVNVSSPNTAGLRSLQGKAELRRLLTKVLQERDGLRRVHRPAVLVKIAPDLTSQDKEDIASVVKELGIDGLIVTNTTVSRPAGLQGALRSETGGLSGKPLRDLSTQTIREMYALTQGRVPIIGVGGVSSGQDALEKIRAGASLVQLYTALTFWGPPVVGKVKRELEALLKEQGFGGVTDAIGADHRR

[2] = Plasma protein binding in rat assessed as free fraction at 1 uM by equilibrium dialysis based LC-MS/MS analysis; type: ADME, cell-free
[3] = Plasma protein binding in human assessed as free fraction at 1 uM by equilibrium dialysis based LC-MS/MS analysis; type: ADME, cell-free
[4] = biological target: T1, Cytochrome P450 1A2 (Homo sapiens, UniProt P05177); assay: Inhibition of CYP1A2 in human liver microsomes incubated for 10 mins by LC-MS/MS analysis; type: ADME, Microsome
T1 sequence (P05177 whole entry): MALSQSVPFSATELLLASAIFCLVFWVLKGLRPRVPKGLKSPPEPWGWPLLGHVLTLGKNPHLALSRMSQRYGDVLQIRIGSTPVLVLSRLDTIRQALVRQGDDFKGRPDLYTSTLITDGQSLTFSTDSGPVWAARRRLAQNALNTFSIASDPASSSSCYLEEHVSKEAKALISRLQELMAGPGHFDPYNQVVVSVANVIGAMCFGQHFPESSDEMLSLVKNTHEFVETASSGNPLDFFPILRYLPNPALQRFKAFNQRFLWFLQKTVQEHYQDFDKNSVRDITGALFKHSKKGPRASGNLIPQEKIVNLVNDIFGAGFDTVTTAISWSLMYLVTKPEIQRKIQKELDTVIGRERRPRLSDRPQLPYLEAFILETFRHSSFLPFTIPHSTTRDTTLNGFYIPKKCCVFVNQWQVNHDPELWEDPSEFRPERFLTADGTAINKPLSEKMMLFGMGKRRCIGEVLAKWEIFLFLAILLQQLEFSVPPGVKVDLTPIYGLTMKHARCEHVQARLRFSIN

[5] = Intrinsic clearance in dog hepatocytes measured per 10^6 cells; type: ADME, cell-based, Canis lupus familiaris, Hepatocyte
[6] = Metabolic stability in rat liver microsome assessed as intrinsic clearance pretreated for 5 mins followed by NADPH addition and measured upto 60 mins by HPLC-MS/MS analysis; type: ADME; settings: liver microsomes, time < 65 min, read-out: CLH
[7] = Intrinsic clearance in mouse hepatocytes measured per 10^6 cells; type: ADME, cell-based, Hepatocyte
[8] = biological target: Cytochrome P450 2C19 (Homo sapiens, UniProt P33261); assay: Inhibition of CYP2C19 in human liver microsomes incubated for 10 mins by LC-MS/MS analysis; type: ADME, Microsome
Cytochrome P450 2C19, sequence (P33261 whole entry): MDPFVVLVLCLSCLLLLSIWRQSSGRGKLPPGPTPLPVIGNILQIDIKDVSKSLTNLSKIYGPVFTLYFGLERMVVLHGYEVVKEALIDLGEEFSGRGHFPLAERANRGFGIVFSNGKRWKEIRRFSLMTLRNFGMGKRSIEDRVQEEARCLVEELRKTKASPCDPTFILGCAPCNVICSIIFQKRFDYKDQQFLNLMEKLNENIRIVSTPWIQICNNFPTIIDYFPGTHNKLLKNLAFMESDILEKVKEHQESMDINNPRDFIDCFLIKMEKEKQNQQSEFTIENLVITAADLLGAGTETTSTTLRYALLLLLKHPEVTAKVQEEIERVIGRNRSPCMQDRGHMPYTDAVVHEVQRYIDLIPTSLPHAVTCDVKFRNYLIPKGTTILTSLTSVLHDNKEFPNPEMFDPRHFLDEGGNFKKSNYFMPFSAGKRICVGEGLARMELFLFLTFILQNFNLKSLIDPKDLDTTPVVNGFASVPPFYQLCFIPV

[9] = Plasma protein binding in dog assessed as free fraction at 1 uM by equilibrium dialysis based LC-MS/MS analysis; type: ADME, cell-free, Canis lupus familiaris
[10] = Oral bioavailability in C57BL/6 mouse at 10 mg/kg measured upto 24 hrs by LC-MS/MS analysis; type: ADME, organism-based; settings: in vivo
[11] = Inhibition of monkey DHODH; parameters: species or system Macaca mulatta
[12] = Half life in Sprague-Dawley rat at 10 mg/kg, po or 2 mg/kg, iv measured upto 24 hrs by LC-MS/MS analysis; type: ADME, organism-based; settings: in vivo
[13] = Inhibition of dog DHODH; parameters: species or system Canis lupus familiaris
[14] = Intrinsic clearance in monkey hepatocytes measured per 10^6 cells; type: ADME, cell-based, Macaca mulatta, Hepatocyte; settings: rhesus monkey
[15] = Stability in human hepatocytes assessed as intrinsic clearance measured per 10^6 cells incubated upto 120 mins by LC-MS/MS analysis; type: ADME, cell-based, Hepatocyte; settings: 2 h
[16] = biological target: Cytochrome P450 3A4 (Homo sapiens, UniProt P08684); assay: Inhibition of CYP3A4 in human liver microsomes using midazolam as substrate measured after 5 mins by LC-MS/MS analysis; type: ADME, Microsome
Cytochrome P450 3A4, sequence (P08684 whole entry): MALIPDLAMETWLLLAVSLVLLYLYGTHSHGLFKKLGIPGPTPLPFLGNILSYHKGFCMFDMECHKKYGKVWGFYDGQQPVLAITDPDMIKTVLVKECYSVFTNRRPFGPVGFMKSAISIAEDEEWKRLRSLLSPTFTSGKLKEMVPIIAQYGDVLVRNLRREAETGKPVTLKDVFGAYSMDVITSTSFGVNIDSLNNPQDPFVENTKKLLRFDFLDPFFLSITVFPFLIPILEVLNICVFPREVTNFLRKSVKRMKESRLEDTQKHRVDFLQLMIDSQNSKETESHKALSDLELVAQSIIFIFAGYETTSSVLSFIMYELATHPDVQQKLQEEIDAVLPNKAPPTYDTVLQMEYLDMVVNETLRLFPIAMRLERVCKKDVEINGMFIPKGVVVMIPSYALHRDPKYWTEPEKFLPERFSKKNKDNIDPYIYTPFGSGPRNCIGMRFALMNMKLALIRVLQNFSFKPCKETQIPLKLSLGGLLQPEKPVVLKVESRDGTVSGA

[17] = Plasma protein binding in mouse assessed as free fraction at 1 uM by equilibrium dialysis based LC-MS/MS analysis; type: ADME, cell-free
[18] = Half life in C57BL/6 mouse at 10 mg/kg, po or 2 mg/kg, iv measured upto 24 hrs by LC-MS/MS analysis; type: ADME, organism-based; settings: in vivo
[19] = Tmax in Sprague-Dawley rat at 10 mg/kg, po or 2 mg/kg, iv measured upto 24 hrs by LC-MS/MS analysis; type: ADME, organism-based; settings: in vivo
[20] = biological target: T2, Cytochrome P450 2C8 (Homo sapiens, UniProt P10632); assay: Inhibition of CYP2C8 in human liver microsomes incubated for 10 mins by LC-MS/MS analysis; type: ADME, Microsome
T2 sequence (P10632 whole entry): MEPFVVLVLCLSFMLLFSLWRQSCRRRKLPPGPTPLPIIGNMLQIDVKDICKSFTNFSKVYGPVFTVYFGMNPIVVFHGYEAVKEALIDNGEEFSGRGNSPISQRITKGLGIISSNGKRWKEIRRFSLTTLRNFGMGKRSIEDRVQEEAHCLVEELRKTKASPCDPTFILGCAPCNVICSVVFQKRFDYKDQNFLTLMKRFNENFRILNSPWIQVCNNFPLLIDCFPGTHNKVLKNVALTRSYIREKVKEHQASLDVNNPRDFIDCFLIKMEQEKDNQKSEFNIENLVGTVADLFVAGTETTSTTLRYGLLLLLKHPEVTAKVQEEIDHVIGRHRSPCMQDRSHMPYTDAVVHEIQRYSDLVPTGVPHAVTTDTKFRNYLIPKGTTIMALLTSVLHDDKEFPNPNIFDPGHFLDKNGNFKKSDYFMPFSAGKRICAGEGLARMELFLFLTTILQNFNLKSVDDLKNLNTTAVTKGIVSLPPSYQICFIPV

[21] = test system: MOLM-13; assay: Antiproliferative activity against human MOLM-13 cells incubated for 72 hrs by CellTiter-Glo assay; type: functional, cell-based; settings: MOLM-13, 72 h
[22] = AUC(0 to infinity) in Sprague-Dawley rat at 10 mg/kg, po or 2 mg/kg, iv measured upto 24 hrs by LC-MS/MS analysis; type: ADME, organism-based; parameters: dose 10 mg/kg, time < 24 hrs, route po; settings: in vivo
[23] = Metabolic stability in mouse liver microsome assessed as intrinsic clearance pretreated for 5 mins followed by NADPH addition and measured upto 60 mins by HPLC-MS/MS analysis; type: ADME; settings: liver microsomes, time < 65 min, read-out: CLH
[24] = Oral bioavailability in Sprague-Dawley rat at 10 mg/kg measured upto 24 hrs by LC-MS/MS analysis; type: ADME, organism-based; settings: in vivo
[25] = Volume of distribution at steady state in Sprague-Dawley rat at 10 mg/kg, po or 2 mg/kg, iv measured upto 24 hrs by LC-MS/MS analysis; type: ADME, organism-based; settings: in vivo
[26] = Solubility of compound at pH 7 by HPLC analysis; type: physicochemical; settings: buffer
[27] = AUC(0 to infinity) in C57BL/6 mouse at 10 mg/kg, po or 2 mg/kg, iv measured upto 24 hrs by LC-MS/MS analysis; type: ADME, organism-based; parameters: time < 24 hrs, dose 10 mg/kg, route po; settings: in vivo
[28] = Volume of distribution at steady state in C57BL/6 mouse at 10 mg/kg, po or 2 mg/kg, iv measured upto 24 hrs by LC-MS/MS analysis; type: ADME, organism-based; settings: in vivo
[29] = Cmax in C57BL/6 mouse at 10 mg/kg, po or 2 mg/kg, iv measured upto 24 hrs by LC-MS/MS analysis; type: ADME, organism-based; parameters: time < 24 hrs, dose 10 mg/kg, route po; settings: in vivo
[30] = test system: THP-1; assay: Antiproliferative activity against human THP-1 cells assessed as reduction in cell viability measured after 72 hrs; type: functional, cell-based; settings: THP-1, 72 h
[31] = Tmax in C57BL/6 mouse at 10 mg/kg, po or 2 mg/kg, iv measured upto 24 hrs by LC-MS/MS analysis; type: ADME, organism-based; settings: in vivo

Row | SMILES | IC50 [1] | fraction unbound at 1 µM [2] | fraction unbound at 1 µM [3] | IC50 [4] | CLH [5] | CLint scaled [6] | CLH [7] | IC50 [8] | fraction unbound at 1 µM [9] | bioavailability [10] | IC50 [11] | half-life [12] | IC50 [13] | CLH [14] | CLH [15] | IC50 [16] | fraction unbound at 1 µM [17] | half-life [18] | Tmax [19] | IC50 [20] | other results
1 | CCn1c(CO)nn(-c2nc(O[C@@H](C)C(F)(F)F)c(C(=O)Nc3c(C)ccnc3Cl)cc2F)c1=O | 1.1 nM | 0.28 | 0.38 | > 10000 nM | 8.3 µL/min/1e6 cells | 5.2 mL/min/kg | 5.7 µL/min/1e6 cells | > 10000 nM | 0.33 | 103% | 1.6 nM | 2 h | 8.5 nM | 4 µL/min/1e6 cells | < 1.9 µL/min/1e6 cells | > 10000 nM | 0.23 | 2.3 h | 1.7 h | > 10000 nM | IC50 [21]: 2 nM; AUC(0-inf) [22]: 9210 ng·h/mL; CLint scaled [23]: 5.7 mL/min/kg; F ([24]; po, 10 mg/kg, 24 h): 167%; Vdss [25]: 2.3 L/kg; solubility [26]: > 400 µM; AUC(0-inf) [27]: 16100 ng·h/mL; Vdss [28]: 1.3 L/kg; Cmax [29]: 4050 ng/mL; IC50 [30]: 5 nM; Tmax [31]: 0.42 h
2 | CCn1c(CO)nn(-c2nc(O[C@@H](C)C(F)(F)F)c(C(=O)Nc3c(C)cnc(OC)c3Cl)cc2F)c1=O | 0.3 nM | 0.078 | 0.063 | > 10000 nM | 86 µL/min/1e6 cells | 6.2 mL/min/kg | 5.5 µL/min/1e6 cells | > 10000 nM | 0.042 | 110% | 0.54 nM | 4 h | 4.2 nM | 5.3 µL/min/1e6 cells | 2.3 µL/min/1e6 cells | > 10000 nM | 0.062 | 5 h | 4 h | > 10000 nM | IC50 [21]: 0.4 nM; AUC(0-inf) [22]: 23800 ng·h/mL; CLint scaled [23]: 5.5 mL/min/kg; bioavailability ([24]; Sprague-Dawley): 106%; Vdss [25]: 2.2 L/kg; solubility [26]: 5 µM (≈ 2.74 µg/mL); AUC(0-inf) [27]: 25000 ng·h/mL; Vdss [28]: 2.4 L/kg; Cmax [29]: 3810 ng/mL; IC50 [30]: 1.4 nM; Tmax [31]: 1 h
